Source: patent US20240246942A1, “KINASE INHIBITORS FOR THE TREATMENT OF NEURODEGENERATIVE DISEASES” (priority 2020, published 2024)

Assays:
Experiment in all cases: biochemical
[1] = target: T1, panel of 374 wild-type kinases (Homo sapiens, UniProt Q8N752); details: read-out: % Enzyme Activity (relative to DMSO controls), CK1a1L
T1 construct: purchased Reaction Biology Corporation
T1 sequence (Q8N752 1-337): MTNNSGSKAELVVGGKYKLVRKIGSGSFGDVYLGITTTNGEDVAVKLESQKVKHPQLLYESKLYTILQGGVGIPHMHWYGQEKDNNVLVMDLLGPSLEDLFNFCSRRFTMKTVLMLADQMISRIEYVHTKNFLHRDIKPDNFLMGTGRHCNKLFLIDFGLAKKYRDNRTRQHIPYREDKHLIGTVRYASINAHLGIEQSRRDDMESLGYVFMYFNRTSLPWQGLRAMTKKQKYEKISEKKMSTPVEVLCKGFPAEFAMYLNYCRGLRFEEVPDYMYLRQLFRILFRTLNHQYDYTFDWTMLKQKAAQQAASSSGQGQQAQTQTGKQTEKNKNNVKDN

[2] = target: T2, panel of 374 wild-type kinases (Homo sapiens, UniProt P54756); details: read-out: % Enzyme Activity (relative to DMSO controls), EPHA5
T2 construct: purchased Reaction Biology Corporation
T2 sequence (P54756 25-1037): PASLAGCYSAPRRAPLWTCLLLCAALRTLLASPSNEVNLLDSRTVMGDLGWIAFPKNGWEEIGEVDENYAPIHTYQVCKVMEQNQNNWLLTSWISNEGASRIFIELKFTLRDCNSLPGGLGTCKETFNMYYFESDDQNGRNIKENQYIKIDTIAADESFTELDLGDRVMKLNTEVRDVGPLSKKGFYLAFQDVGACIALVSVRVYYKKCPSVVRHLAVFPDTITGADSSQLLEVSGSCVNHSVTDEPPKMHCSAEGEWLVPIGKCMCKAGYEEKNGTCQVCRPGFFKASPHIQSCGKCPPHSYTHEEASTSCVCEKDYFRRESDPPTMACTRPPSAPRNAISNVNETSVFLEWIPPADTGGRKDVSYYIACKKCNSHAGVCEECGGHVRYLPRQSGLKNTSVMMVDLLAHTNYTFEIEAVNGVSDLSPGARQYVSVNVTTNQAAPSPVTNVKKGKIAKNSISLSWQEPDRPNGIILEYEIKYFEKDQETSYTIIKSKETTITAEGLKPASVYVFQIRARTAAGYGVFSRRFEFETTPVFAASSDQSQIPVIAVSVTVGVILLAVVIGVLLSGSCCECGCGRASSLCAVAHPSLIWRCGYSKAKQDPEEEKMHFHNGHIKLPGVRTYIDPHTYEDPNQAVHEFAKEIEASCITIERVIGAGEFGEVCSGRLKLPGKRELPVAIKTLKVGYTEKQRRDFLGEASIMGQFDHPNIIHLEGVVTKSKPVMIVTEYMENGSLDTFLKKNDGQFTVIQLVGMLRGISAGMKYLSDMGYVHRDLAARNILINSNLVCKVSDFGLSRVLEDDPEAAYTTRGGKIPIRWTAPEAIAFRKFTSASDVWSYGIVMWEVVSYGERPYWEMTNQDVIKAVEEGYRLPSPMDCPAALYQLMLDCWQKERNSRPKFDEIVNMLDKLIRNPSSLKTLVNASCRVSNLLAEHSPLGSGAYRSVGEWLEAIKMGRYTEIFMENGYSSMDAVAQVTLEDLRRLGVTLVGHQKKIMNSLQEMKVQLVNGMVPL

[3] = target: T3, panel of 374 wild-type kinases (Homo sapiens, UniProt Q6P2M8); details: read-out: % Enzyme Activity (relative to DMSO controls), CAMK1b
T3 construct: purchased Reaction Biology Corporation
T3 sequence (Q6P2M8 whole entry): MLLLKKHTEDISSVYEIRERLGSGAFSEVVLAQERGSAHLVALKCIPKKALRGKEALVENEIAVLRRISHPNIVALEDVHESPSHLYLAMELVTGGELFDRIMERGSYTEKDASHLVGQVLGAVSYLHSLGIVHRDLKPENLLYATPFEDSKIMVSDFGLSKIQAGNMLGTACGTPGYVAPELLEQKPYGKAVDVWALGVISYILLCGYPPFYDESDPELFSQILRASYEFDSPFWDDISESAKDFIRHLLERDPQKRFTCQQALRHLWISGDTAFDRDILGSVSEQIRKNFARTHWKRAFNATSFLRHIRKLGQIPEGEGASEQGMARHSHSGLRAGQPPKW

[4] = target: T4, panel of 374 wild-type kinases (Homo sapiens, UniProt Q15208); details: read-out: % Enzyme Activity (relative to DMSO controls), kinase STK38/NDR1
T4 construct: purchased Reaction Biology Corporation
T4 sequence (Q15208 whole entry): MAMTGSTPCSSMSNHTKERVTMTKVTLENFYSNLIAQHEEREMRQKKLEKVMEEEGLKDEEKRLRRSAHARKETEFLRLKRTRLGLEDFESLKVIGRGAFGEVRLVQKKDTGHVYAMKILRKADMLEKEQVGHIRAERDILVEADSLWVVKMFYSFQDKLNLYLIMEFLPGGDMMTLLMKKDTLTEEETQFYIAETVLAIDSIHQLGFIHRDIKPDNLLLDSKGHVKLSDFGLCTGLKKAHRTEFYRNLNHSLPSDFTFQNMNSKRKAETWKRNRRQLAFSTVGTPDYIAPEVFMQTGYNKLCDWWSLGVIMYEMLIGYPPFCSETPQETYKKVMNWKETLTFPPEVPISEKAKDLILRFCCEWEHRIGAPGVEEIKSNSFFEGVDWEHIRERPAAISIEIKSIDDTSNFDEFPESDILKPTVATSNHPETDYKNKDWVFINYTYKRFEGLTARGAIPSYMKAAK

[5] = target: T5, panel of 374 wild-type kinases (Homo sapiens, UniProt Q92918); details: read-out: % Enzyme Activity (relative to DMSO controls), HPK1/MAP4K1
T5 construct: purchased Reaction Biology Corporation
T5 sequence (Q92918 whole entry): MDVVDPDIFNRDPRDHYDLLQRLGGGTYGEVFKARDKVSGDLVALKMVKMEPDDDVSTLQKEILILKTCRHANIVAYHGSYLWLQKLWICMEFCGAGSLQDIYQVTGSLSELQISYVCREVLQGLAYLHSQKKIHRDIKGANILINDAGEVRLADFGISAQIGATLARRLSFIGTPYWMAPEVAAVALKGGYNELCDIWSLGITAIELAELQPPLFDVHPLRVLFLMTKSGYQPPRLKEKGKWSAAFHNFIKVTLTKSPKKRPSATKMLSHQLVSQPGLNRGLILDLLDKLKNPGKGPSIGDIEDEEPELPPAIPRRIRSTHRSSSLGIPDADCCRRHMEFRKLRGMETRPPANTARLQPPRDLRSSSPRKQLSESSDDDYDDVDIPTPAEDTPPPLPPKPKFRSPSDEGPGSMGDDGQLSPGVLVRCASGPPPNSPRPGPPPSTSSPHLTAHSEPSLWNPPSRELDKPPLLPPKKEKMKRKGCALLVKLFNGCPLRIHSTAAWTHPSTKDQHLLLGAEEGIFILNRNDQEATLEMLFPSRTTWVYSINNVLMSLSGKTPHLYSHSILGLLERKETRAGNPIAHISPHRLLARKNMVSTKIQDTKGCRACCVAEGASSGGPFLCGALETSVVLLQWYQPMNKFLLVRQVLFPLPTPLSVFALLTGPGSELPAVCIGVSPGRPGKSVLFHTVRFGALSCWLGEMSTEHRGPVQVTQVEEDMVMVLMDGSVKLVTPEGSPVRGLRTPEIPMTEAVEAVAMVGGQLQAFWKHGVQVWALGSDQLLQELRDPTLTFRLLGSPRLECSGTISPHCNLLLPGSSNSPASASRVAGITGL

[6] = target: T6, panel of 374 wild-type kinases (Homo sapiens, UniProt Q8NE63); details: read-out: % Enzyme Activity (relative to DMSO controls), HIPK4
T6 construct: purchased Reaction Biology Corporation
T6 sequence (Q8NE63 1-616): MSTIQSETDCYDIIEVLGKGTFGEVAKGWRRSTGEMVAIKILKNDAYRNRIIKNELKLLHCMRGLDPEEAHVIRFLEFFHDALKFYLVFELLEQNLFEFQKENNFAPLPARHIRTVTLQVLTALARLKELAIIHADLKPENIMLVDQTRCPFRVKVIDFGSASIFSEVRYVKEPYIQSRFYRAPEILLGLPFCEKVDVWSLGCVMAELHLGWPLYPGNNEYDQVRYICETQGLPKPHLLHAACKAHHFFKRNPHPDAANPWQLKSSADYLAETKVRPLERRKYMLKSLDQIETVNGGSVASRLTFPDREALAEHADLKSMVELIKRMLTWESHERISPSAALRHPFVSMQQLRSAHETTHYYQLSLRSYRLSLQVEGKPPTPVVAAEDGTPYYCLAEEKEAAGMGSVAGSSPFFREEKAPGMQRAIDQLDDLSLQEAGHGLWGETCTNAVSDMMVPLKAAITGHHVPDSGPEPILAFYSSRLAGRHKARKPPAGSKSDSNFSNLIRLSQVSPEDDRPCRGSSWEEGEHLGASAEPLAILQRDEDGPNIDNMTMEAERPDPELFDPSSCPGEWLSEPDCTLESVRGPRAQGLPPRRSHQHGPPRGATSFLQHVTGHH

[7] = target: T7, panel of 374 wild-type kinases (Homo sapiens, UniProt P04049); details: read-out: % Enzyme Activity (relative to DMSO controls), kinase RAF1
T7 construct: purchased Reaction Biology Corporation
T7 sequence (P04049 whole entry): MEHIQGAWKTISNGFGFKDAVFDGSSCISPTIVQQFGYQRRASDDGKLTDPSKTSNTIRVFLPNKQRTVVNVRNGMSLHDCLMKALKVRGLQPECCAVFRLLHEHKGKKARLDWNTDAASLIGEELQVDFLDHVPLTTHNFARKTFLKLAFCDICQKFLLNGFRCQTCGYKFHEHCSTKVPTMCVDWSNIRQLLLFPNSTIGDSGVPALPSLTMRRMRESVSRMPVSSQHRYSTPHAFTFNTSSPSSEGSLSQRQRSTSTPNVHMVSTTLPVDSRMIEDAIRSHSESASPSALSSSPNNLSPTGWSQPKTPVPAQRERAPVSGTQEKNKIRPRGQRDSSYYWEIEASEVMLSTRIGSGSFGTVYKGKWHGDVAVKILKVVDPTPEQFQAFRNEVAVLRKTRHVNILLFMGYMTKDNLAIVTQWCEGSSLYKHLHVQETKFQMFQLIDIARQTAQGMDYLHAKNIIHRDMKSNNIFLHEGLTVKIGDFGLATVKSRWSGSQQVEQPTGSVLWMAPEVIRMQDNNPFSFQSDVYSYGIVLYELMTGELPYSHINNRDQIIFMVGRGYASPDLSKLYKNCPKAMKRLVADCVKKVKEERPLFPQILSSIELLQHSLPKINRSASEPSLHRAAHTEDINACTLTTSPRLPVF

[8] = target: T8, panel of 374 wild-type kinases (Homo sapiens, UniProt P36888); details: read-out: % Enzyme Activity (relative to DMSO controls), FLT3
T8 construct: purchased Reaction Biology Corporation
T8 sequence (P36888 27-993): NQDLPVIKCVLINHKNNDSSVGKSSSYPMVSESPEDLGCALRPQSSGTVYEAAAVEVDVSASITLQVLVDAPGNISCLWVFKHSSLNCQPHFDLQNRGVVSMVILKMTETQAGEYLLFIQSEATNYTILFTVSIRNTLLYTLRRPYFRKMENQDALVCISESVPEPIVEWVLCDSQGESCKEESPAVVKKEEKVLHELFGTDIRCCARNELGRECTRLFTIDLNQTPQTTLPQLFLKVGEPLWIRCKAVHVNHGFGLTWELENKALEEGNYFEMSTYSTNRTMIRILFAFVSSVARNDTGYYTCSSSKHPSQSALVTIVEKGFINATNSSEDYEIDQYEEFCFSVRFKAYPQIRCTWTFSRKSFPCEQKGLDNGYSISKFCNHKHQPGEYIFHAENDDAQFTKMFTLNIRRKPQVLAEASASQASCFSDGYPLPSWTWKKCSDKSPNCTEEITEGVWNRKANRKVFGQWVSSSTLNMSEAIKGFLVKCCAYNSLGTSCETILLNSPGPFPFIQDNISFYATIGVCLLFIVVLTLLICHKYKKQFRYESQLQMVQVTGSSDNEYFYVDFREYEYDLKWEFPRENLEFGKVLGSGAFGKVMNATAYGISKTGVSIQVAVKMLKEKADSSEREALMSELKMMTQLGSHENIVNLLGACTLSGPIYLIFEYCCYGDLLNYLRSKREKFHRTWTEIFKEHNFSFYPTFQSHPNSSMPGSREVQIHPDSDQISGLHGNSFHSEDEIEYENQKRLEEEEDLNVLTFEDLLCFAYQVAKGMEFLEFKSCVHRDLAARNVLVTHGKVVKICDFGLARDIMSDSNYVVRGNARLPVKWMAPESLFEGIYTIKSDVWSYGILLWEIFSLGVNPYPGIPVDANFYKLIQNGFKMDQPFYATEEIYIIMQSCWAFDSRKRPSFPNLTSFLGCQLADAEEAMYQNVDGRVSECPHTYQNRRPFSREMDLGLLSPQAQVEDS

| SMILES | remaining activity at 5 µM [1] [%] | remaining activity at 5 µM [2] [%] | remaining activity at 5 µM [3] [%] | remaining activity at 5 µM [4] [%] | remaining activity at 5 µM [5] [%] | remaining activity at 5 µM [6] [%] | remaining activity at 5 µM [7] [%] | remaining activity at 5 µM [8] [%] | remaining activity at 10 µM ([1]; 10 uM) [%] | remaining activity at 10 µM ([2]; 10 uM) [%] | remaining activity at 10 µM ([3]; 10 uM) [%] | remaining activity at 10 µM ([4]; 10 uM) [%] | remaining activity at 10 µM ([5]; 10 uM) [%] | remaining activity at 10 µM ([6]; 10 uM) [%] | remaining activity at 10 µM ([7]; 10 uM) [%] | remaining activity at 10 µM ([8]; 10 uM) [%] |
| --- | --- | --- | --- | --- | --- | --- | --- | --- | --- | --- | --- | --- | --- | --- | --- | --- |
| O=C(Nc1cnn(-c2csc(C(=O)NC3COC3)c2)c1)Nc1ccccc1Cl [Compound 17, 4-(4-(3-(2-chlorophenyl)ureido)-1H-pyrazol-1-yl)-N-(oxetan-3-yl)thiophene-2-carboxamide] | 109 | 96.9 | 96.3 | 99.2 | 132 | 100 | 87 | 89.7 | – | – | – | – | – | – | – | – |
| O=C(Nc1cnn(-c2csc(C(=O)NC3COC3)c2)c1)Nc1c(F)cccc1Cl [Compound 25, 4-(4-(3-(2-chloro-6-fluorophenyl)ureido)-1H-pyrazol-1-yl)-N-(oxetan-3-yl)thiophene-2-carboxamide] | 81.1 | 95 | 102 | 95.5 | 92.7 | 111 | 92.5 | 99.2 | – | – | – | – | – | – | – | – |
| Cc1sc(C(=O)NC2COC2)cc1-n1cc(NC(=O)Nc2c(F)cccc2Cl)cn1 [Compound 27, 4-(4-(3-(2-chloro-6-fluorophenyl)ureido)-1H-pyrazol-1-yl)-5-methyl-N-(oxetan-3-yl)thiophene-2-carboxamide] | – | – | – | – | – | – | – | – | 105 | 106 | 80.1 | 91.5 | 99.2 | 98.4 | 92.6 | 69.1 |
